We go through four molecules from patent US11312940B2, “Progenitor cells and methods for preparing and using the same” (University of Louisville Research Foundation, Inc., priority 2015, dated 2022).

Assay [1] deals with BM HSPCs. Nature of the assay: Total number of BM HSPCs by FACS after SexH administration. To be noted: male and female mice, 10-day administration. In kind it is in vivo, mouse. The protocol: (§1) Hormone treatment was performed for 10 days.
(§2) All mAbs were added at saturating concentrations, and the cells were incubated for 30 minutes on ice, washed twice, and then resuspended for sorting in cell-sorting medium containing 1× Hank's Balanced Salt Solution without phenol red (GIBCO™, a division of Thermo Fisher Scientific Inc., Waltham, Mass.), 2% heat-inactivated fetal calf serum (GIBCO™), 10 mM HEPES buffer (GIBCO™), and 30 U/mL gentamicin (GIBCO™) at a concentration of 5×10^6 cells/mL. Sca-1^+/Lin^−/CD45^− cells (VSELs) and Sca-1^+/Lin^−/CD45^+ cells (HSCs) were isolated according to the gating and sorting strategy described in Zuba-Surma & Ratajczak, 2010 and Suszynska et al, 2014b. Proliferation events in BM-derived VSEL and HSC populations were examined by BrdU incorporation followed by flow cytometry.

Assay [2] concerns Sca-1+/Lin-/CD45- cells (VSELs). Nature of the assay: In vivo BrdU incorporation into BM VSELs. On the set-up: species or system mouse. To be noted: for BrdU incorporation response of Sca-1+/Lin-/CD45- cells (ranking): 10-day administration. The protocol: as §1, §2
(§3) Adult C57BL/6 mice (4-8 weeks old; Jackson Laboratory) were intraperitoneally (i.p.) were injected daily with 1 mg of BrdU solution to evaluate whether SexHs affect proliferation of stem cells, and the final injection of BrdU was performed 1 hour before sacrificing the animals (see Grymula et al, 2014). […] Samples were analyzed with a Navios flow cytometer (Beckman Coulter).
(Incorporation of labelled thymidine or its analogues reports DNA synthesis.)

Assay [3] has as its system BM VSELs. Nature of the assay: Total number of BM VSELs by FACS after SexH administration. In kind it is in vivo, mouse. To be noted: 10-day administration; for increase in total number of VSELs/10^6 BMMNCs (ranking): female mice; for increase in total number of VSELs/10^6 BMMNCs: male BM. The protocol:
as §1, §2
(In general: In flow cytometry, cells or beads pass a laser one at a time.)

Assay [4] deals with sublethally irradiated mice. Nature of the assay: Recovery of PB counts in sublethally irradiated mice. In kind it is in vivo, mouse. To be noted: 650 cGy, injections for 10 days. The protocol: Fifty microliters of PB was taken from the retro-orbital plexus of the mice and collected into microvette EDTA-coated tubes (Sarstedt AG & Co., Nümbrecht, Germany). Samples were run within 2 hours of collection on a HEMAVET® 950 hematology analyzer (Drew Scientific Inc., Oxford, Conn.) as described in Borkowska et al., 2014.
Blood was collected on days 0, 3, 7, 14, 21, and 28, and white blood cell (WBC), platelet, red blood cells (RBC), and hematocrit were measured on a HEMAVET® instrument (HV950FS; Drew Scientific Inc.) as described in Borkowska et al, 2014. Experiments were performed twice (each time, n=5).

Assay [5] concerns Sca-1+/Lin-/CD45+ cells (HSPCs). Description: In vivo BrdU incorporation into BM HSPCs. Also noted: species or system mouse. The protocol: as §1, §2, §3

Consider `C#C[C@]1(O)CC[C@H]2[C@@H]3CCC4=Cc5oncc5C[C@]4(C)[C@H]3CC[C@@]21C` [danazol], for which the “increase in BM HSPCs/10^6 BMMNCs (ranking)” value in assay [1] was “highest stimulatory effect”. In assay [2] (female and male cells), the “BrdU incorporation response of Sca-1+/Lin-/CD45- cells (ranking)” value is “highest response”. Besides, in assay [3], the “increase in total number of VSELs/10^6 BMMNCs (ranking)” value is recorded as “most effective” and the “increase in total number of VSELs/10^6 BMMNCs” value is “about 2.5 fold”. In addition, in assay [4], the leucocyte counts entry was “statistically significant increase”. Further, the “increase in percentage of BrdU+ Sca-1+/Lin-/CD45+ cells (ranking)” value in assay [5] (10-day administration) is listed as “highest increases”.
As for `C[C@]12CC[C@@H]3c4ccc(O)cc4CC[C@H]3[C@@H]1CC[C@@H]2O` [estrogen, estradiol], the “increase in total number of VSELs/10^6 BMMNCs” value in assay [3] is “about 2.5 fold”.
With `CC(=O)[C@H]1CC[C@H]2[C@@H]3CCC4=CC(=O)CC[C@]4(C)[C@H]3CC[C@]12C` [progesterone], the “BrdU incorporation in Sca-1+/Lin-/CD45- VSELs” value in assay [2] (ovariectomized female mice) is listed as “enhanced BrdU incorporation”. Moreover, the “BrdU incorporation into Sca1+/Lin-/CD45+ HSPCs” value in assay [5] (ovariectomized female mice) is “small increase in BrdU incorporation”.

B1: prolactin (protein, UniProt P01236 29-227, looked up)
Prolactin: LPICPGGAARCQVTLRDLFDRAVVLSHYIHNLSSEMFSEFDKRYTHGRGFITKAINSCHTSSLATPEDKEQAQQMNQKDFLSLIVSILRSWNEPLYHLVTEVRGMQEAPEAILSKAVEIEEQTKRLLEGMELIVSQVHPETKENEIYPVWSGLPSLQMADEESRLSAYYNLLHCLRRDSHKIDNYLKLLKCRIIHNNNC
notes: pituitary sex hormone, purchased from ProSpec
Regarding B1, the “BrdU incorporation response of Sca-1+/Lin-/CD45- cells (ranking)” value in assay [2] (female cells) is “highest response”. Besides, in assay [3], the “increase in total number of VSELs/10^6 BMMNCs (ranking)” value is reported as “most effective” and the “increase in total number of VSELs/10^6 BMMNCs” value is listed as “about 2.5 fold”. In addition, in assay [4], the leucocyte counts entry was “statistically significant increase”.
